In patent EP0549857A1, “Antibacterial quinolone carboxylic acid derivatives” (KOREA RESEARCH INSTITUTE OF CHEMICAL TECHNOLOGY, priority 1991, dated 1993):
Converted amounts (≈) assume the structure as drawn. Where two headings read alike, the source gives them in different places.

What was measured:
Escherichia coli 1507E = test: In vitro anti-bacterial activity test (MIC, two-fold agar dilution); type: cell-based; conditions: Mueller-Hinton agar, 10⁷ CFU/mℓ, 37°C, 18 hours
[1] = test system: Pseudomonas aeruginosa 9027; test: as above; type: cell-based
[2] = test system: Staphylococcus aureus 285; test: as above; type: cell-based
Salmonella typhimurium = test: as above; type: cell-based; conditions: Mueller-Hinton agar, 10⁷ CFU/mℓ, 37°C, 18 hours
[3] = test system: Klebsiella aerogenes 1522E; test: as above; type: cell-based; conditions: Mueller-Hinton agar, 10⁷ CFU/mℓ, 37°C, 18 hours
Escherichia coli DC 0 = test: as above; type: cell-based; conditions: 10⁷ CFU/mℓ, 37°C, 18 hours
[4] = test system: Pseudomonas aeruginosa 1592E; test: as above; type: cell-based; conditions: Mueller-Hinton agar, 10⁷ CFU/mℓ, 37°C, 18 hours
Escherichia coli OTEM = test: as above; type: cell-based; conditions: Mueller-Hinton agar, 10⁷ CFU/mℓ, 37°C, 18 hours
Escherichia coli DC 2 = test: as above; type: cell-based; conditions: 10⁷ CFU/mℓ, 37°C, 18 hours
[5] = test system: Streptococcus pyogenes 308A; test: as above; type: cell-based; conditions: Mueller-Hinton agar, 10⁷ CFU/mℓ, 37°C, 18 hours
Enterobacter cloacae P99 = test: as above; type: cell-based; conditions: Mueller-Hinton agar, 10⁷ CFU/mℓ, 37°C, 18 hours
Escherichia coli O 55 = test: as above; type: cell-based; conditions: 10⁷ CFU/mℓ, 37°C, 18 hours
[6] = test system: Klebsiella aerogenes 1082E; test: as above; type: cell-based; conditions: Mueller-Hinton agar, 10⁷ CFU/mℓ, 37°C, 18 hours
[7] = test system: Streptococcus pyogenes 77A; test: as above; type: cell-based
[8] = test system: Staphylococcus aureus 503; test: as above; type: cell-based
[9] = test system: Staphylococcus aureus SG 511; test: as above; type: cell-based
[10] = test system: Streptococcus faecium MD 8b; test: as above; type: cell-based
[11] = test system: Pseudomonas aeruginosa 1771; test: as above; type: cell-based
[12] = test system: Enterobacter cloacae 1321E; test: as above; type: cell-based; conditions: Mueller-Hinton agar, 10⁷ CFU/mℓ, 37°C, 18 hours
P. mirabilis = test: Preventive effect on the systemic infection; type: in vivo; conditions: Proteus mirabilis, in Mus musculus, P. mirabilis intraperitoneal infection, NMRI mice, survival on day 7, probit analysis, read-out: ED₅₀
Procedure: (§1) 10 fold of the pathogen which leads to 100% lethality were injected intraperitoneally to male and female NMRI mice weighing 18 to 20g. Immediately and after 4 hours, the dose of test compounds which was determined by two-fold serial dilution method was administered orally or subcutaneously; and on day 7, the effectiveness was evaluated in terms of ED₅₀ calculated from the number of survived mice by the probit analysis.

S. aureus 17740 = test: Preventive effect on the systemic infection; type: in vivo; conditions: Staphylococcus aureus, 17740, in Mus musculus, S. aureus 17740 intraperitoneal infection, NMRI mice, survival on day 7, probit analysis, read-out: ED₅₀
Procedure: as §1

[13] = test system: Pseudomonas aeruginosa 1771M; test: In vitro anti-bacterial activity test (MIC, two-fold agar dilution); type: cell-based; conditions: 18 h
in vivo = conditions: female, ICR, mouse
Procedure: Test compounds were administered to female ICR mice weighing 20 to 25g and on day 14, LD₅₀ was calculated from the number of survived mice by the probit analysis.

[14] = Salmonella enterica, read-out: MIC
[15] = DC0, Mueller-Hinton agar, read-out: MIC
[16] = Oral Administration immediately and after 4 hours
[17] = Subcutaneous Injection immediately and after 4 hours
[18] = DC2, Mueller-Hinton agar, read-out: MIC
[19] = O55, Mueller-Hinton agar, read-out: MIC

7-[6-amino-3-azabicyclo[3,3,0]oct-1(5) ene-3-yl]-5-amino-1-cyclopropyl-6,8-difluoro-1,4-dihydro-4-oxoquinoline-3-carboxylic acid [Example 10]
MIC (Escherichia coli 1507E): 0.049 µg/mL | MIC ([1]; Pseudomonas aeruginosa 9027, Mueller-Hinton agar, 10⁷ CFU/mℓ, 37°C, 18 hours): 1.563 µg/mL | MIC ([2]; Staphylococcus aureus 285, Mueller-Hinton agar, 10⁷ CFU/mℓ, 37°C, 18 hours): 0.049 µg/mL | MIC (Salmonella typhimurium): 0.025 µg/mL | MIC [3]: 0.098 µg/mL | MIC (Escherichia coli DC 0; Mueller-Hinton agar): 0.781 µg/mL | MIC [4]: 1.563 µg/mL | MIC (Escherichia coli OTEM): 0.049 µg/mL | MIC (Escherichia coli DC 2; Mueller-Hinton agar): 0.049 µg/mL | MIC [5]: 0.195 µg/mL | MIC (Enterobacter cloacae P99): 0.025 µg/mL | MIC (Escherichia coli O 55; Mueller-Hinton agar): 0.025 µg/mL | MIC [6]: 0.007 µg/mL | MIC ([7]; Streptococcus pyogenes 77A, Mueller-Hinton agar, 10⁷ CFU/mℓ, 37°C, 18 hours): 0.049 µg/mL | MIC ([8]; Staphylococcus aureus 503, Mueller-Hinton agar, 10⁷ CFU/mℓ, 37°C, 18 hours): 0.025 µg/mL | MIC ([9]; Staphylococcus aureus SG 511, Mueller-Hinton agar, 10⁷ CFU/mℓ, 37°C, 18 hours): 0.025 µg/mL | MIC ([10]; Streptococcus faecium MD 8b, Mueller-Hinton agar, 10⁷ CFU/mℓ, 37°C, 18 hours): 0.195 µg/mL | MIC ([11]; Pseudomonas aeruginosa 1771, Mueller-Hinton agar, 10⁷ CFU/mℓ, 37°C, 18 hours): 1.563 µg/mL | MIC [12]: 0.025 µg/mL

O=C(O)c1cn(C2CC2)c2cc(N3CCNCC3)c(F)cc2c1=O [Ciprofloxacin, reference compound]
MIC ([1]; Pseudomonas aeruginosa, 9027, 18 h): 0.781 µg/mL (≈ 2.36 µM) | MIC ([2]; Staphylococcus aureus, 285, 18 h): 0.781 µg/mL (≈ 2.36 µM) | MIC (Salmonella typhimurium; [14]): 0.049 µg/mL (≈ 0.148 µM) | MIC (Escherichia coli DC 0; [15]): 0.391 µg/mL (≈ 1.18 µM) | ED50 (P. mirabilis; [16]): 0.92 mg/kg | ED50 (P. mirabilis; [17]): 0.28 mg/kg | ED50 (S. aureus 17740; [16]): > 200 mg/kg | ED50 (S. aureus 17740; [17]): 132 mg/kg | MIC ([4]; read-out: MIC): 0.391 µg/mL (≈ 1.18 µM) | MIC (Escherichia coli DC 2; [18]): 0.195 µg/mL (≈ 0.589 µM) | MIC ([5]; read-out: MIC): 3.12 µg/mL (≈ 9.43 µM) | MIC (Escherichia coli O 55; [19]): 0.007 µg/mL (≈ 0.0211 µM) | MIC ([7]; Streptococcus pyogenes, 77A, 18 h): 0.781 µg/mL (≈ 2.36 µM) | MIC ([8]; Staphylococcus aureus, 503, 18 h): 0.781 µg/mL (≈ 2.36 µM) | MIC [13]: 0.195 µg/mL (≈ 0.589 µM) | MIC ([9]; Staphylococcus aureus, SG511, 18 h): 0.781 µg/mL (≈ 2.36 µM) | MIC ([10]; Enterococcus faecium, MD8B, 18 h): 0.781 µg/mL (≈ 2.36 µM) | MIC ([11]; Pseudomonas aeruginosa, 1771, 18 h): 0.781 µg/mL (≈ 2.36 µM)

CNC1CCC2=C1CN(c1c(F)cc3c(=O)c(C(=O)O)cn(C4CC4)c3c1Cl)C2 (centres unmarked) [Example 4, 7-[6-methylamino-3-azabicyclo[3,3,0]oct-1(5)ene-3-yl]-8-chloro-1-cyclopropyl-6-fluoro-1,4-dihydro-4-oxoquinoline-3-carboxylic acid]
MIC (Escherichia coli 1507E; read-out: MIC): 0.098 µg/mL (≈ 0.235 µM) | MIC ([1]; Pseudomonas aeruginosa 9027, Mueller-Hinton agar, 10⁷ CFU/mℓ, 37°C, 18 hours, read-out: MIC): 3.12 µg/mL (≈ 7.48 µM) | MIC ([2]; Staphylococcus aureus 285, Mueller-Hinton agar, 10⁷ CFU/mℓ, 37°C, 18 hours, read-out: MIC): 0.049 µg/mL (≈ 0.117 µM) | MIC (Salmonella typhimurium; [14]): 0.049 µg/mL (≈ 0.117 µM) | MIC ([3]; read-out: MIC): 0.195 µg/mL (≈ 0.467 µM) | MIC (Escherichia coli DC 0; [15]): 0.781 µg/mL (≈ 1.87 µM) | MIC ([4]; read-out: MIC): 3.12 µg/mL (≈ 7.48 µM) | MIC (Escherichia coli OTEM; read-out: MIC): 0.098 µg/mL (≈ 0.235 µM) | MIC (Escherichia coli DC 2; [18]): 0.025 µg/mL (≈ 0.0598 µM) | MIC ([5]; read-out: MIC): 0.195 µg/mL (≈ 0.467 µM) | MIC (Enterobacter cloacae P99; read-out: MIC): 0.098 µg/mL (≈ 0.235 µM) | MIC (Escherichia coli O 55; [19]): 0.025 µg/mL (≈ 0.0598 µM) | MIC ([6]; read-out: MIC): < 0.002 µg/mL | MIC ([7]; Streptococcus pyogenes 77A, Mueller-Hinton agar, 10⁷ CFU/mℓ, 37°C, 18 hours, read-out: MIC): 0.025 µg/mL (≈ 0.0598 µM) | MIC ([8]; Staphylococcus aureus 503, Mueller-Hinton agar, 10⁷ CFU/mℓ, 37°C, 18 hours, read-out: MIC): 0.025 µg/mL (≈ 0.0598 µM) | MIC [13]: 0.781 µg/mL (≈ 1.87 µM) | MIC ([9]; SG511, Staphylococcus aureus SG 511, Mueller-Hinton agar, 10⁷ CFU/mℓ, 37°C, 18 hours, read-out: MIC): 0.025 µg/mL (≈ 0.0598 µM) | MIC ([10]; Enterococcus faecium, MD8B, Streptococcus faecium MD 8b, Mueller-Hinton agar, 10⁷ CFU/mℓ, 37°C, 18 hours, read-out: MIC): 0.049 µg/mL (≈ 0.117 µM) | MIC ([11]; Pseudomonas aeruginosa 1771, Mueller-Hinton agar, 10⁷ CFU/mℓ, 37°C, 18 hours, read-out: MIC): 3.12 µg/mL (≈ 7.48 µM) | MIC ([12]; read-out: MIC): 0.098 µg/mL (≈ 0.235 µM)

COc1c(N2CC3=C(C2)C(N)CC3)c(F)cc2c(=O)c(C(=O)O)cn(C3CC3)c12 (centres unmarked) [Example 6, 7-[6-amino-3-azabicyclo[3,3,0]oct-1(5)ene-3-yl]-1-cyclopropyl-6-fluoro-8-methoxy-1,4-dihydro-4-oxoquinoline-3-carboxylic acid]
LD50 at 14 day (in vivo; ip): 755 mg/kg | LD50 at 14 day (in vivo; po): 4300 mg/kg
